Here are results for 15 compounds from US20230107642A1 (Erasca, Inc., priority 2020, published 2023).

The first experiment concerns the target T1, Cys12 of the KRAS 4B G12C protein (Homo sapiens, UniProt P01116, G12C).
T1 construct: This protein contained 188 amino acids in total, including an N-terminal 6-Histidine tag; made in house; host or cells: E. coli BL21
As to the kind of experiment: In vitro covalent adduct formation (CAF) assay, LC-MS intact mass. In kind it is binding. Particulars: 10 uM compound, 60 min. As to the method:
This Example provides a protocol for assessing covalent adduct formation (CAF) between the compounds of the present application and KRAS.
In vitro covalent adduct formation assay: Covalent adduct formation (CAF) reactions between Cys12 of the KRAS 4B G12C protein and some of the compounds of Tables 1 to 4 were measured in vitro using liquid chromatography-mass spectrometry (LC-MS).
Recombinant Human KRAS 4B protein containing the G12C mutation was used in compound screening experiments. This protein contained 188 amino acids in total, including an N-terminal 6-Histidine tag, followed by a Tobacco Etch Virus (TEV) tag, followed by residues 1-169 of the native KRAS 4B sequence. The exact mass of the protein was 21,310 Da as determined by mass spectrometry. The full amino acid sequence is shown below: […]
The recombinant protein was expressed in E. coli BL21 cells and purified using affinity chromatography via a Ni-NTA column. Protein stocks were nucleotide-exchanged to >95% GDP, concentrated to 4 mg/mL, and stored at −80° C. in storage buffer (50 mM HEPES pH 7.4, 50 mM NaCl, 5 mM MgCl2, 1 mM DTT). Pure KRAS 4B G12C protein was diluted to a concentration of 5 μM in Tris Buffered Saline, pH 7.4. The compounds were dissolved in DMSO and added to the diluted protein to make a 10 μM concentration. The total DMSO concentration in the reaction was 4%. The reaction was mixed by pipetting and incubated at 22° C. for one hour. Aliquots of the reaction were taken over time and diluted 2:1 in 0.1% formic acid. The intact mass of the protein samples was measured by LC-MS using a QExactive+ mass spectrometer (Thermo Scientific). An amount of 500 ng total protein was injected onto a C8 reverse phase column, eluted with a seven-minute gradient of 30%-90% acetonitrile/0.1% formic acid, and analyzed for intact mass by the mass spectrometer. Adducts identified were confirmed to be within 1 Dalton of the expected mass, and the relative ratios of free:adduct protein were used to quantify the percentage of protein bound by the compound. CAF reactions were run in duplicate, with a typical variability of ±5%.
`C=CC(=O)N1[C@H](C)CN(c2nc(=O)n3c4c(c(-c5ccc(F)cc5F)c(C(F)(F)F)cc24)SC[C@@H]3CN2C[C@@H]3C[C@H]2CO3)C[C@@H]1C` (atropisomer, axis not shown) [Example 1300, (3S,10S)-3-(((1S,4S)-2-oxa-5-azabicyclo[2.2.1]heptan-5-yl)methyl)-7-((3S,5R)-4-acryloyl-3,5-dimethylpiperazin-1-yl)-10-(2,4-difluorophenyl)-9-(trifluoromethyl)-2,3-dihydro-5H-[1,4]thiazino[2,3,4-ij]quinazolin-5-one]: the “% CAF 10 uM @ 60 min” value is 90.8%.

Turning to `C=CC(=O)N1[C@H](C)CN(c2nc(=O)n3c4c(c(-c5ccc(F)cc5F)c(C(F)(F)F)cc24)SC[C@@H]3CN2C[C@@H]3C[C@H]2CO3)C[C@@H]1C` (atropisomer, axis not shown) [Example 1301, (3S)-3-((1S,4S)-2-oxa-5-azabicyclo[2.2.1]heptan-5-ylmethyl)-7-((3S,5R)-4-acryloyl-3,5-dimethylpiperazin-1-yl)-10-(2,4-difluorophenyl)-9-(trifluoromethyl)-2H-[1,4]thiazino[2,3,4-ij]quinazolin-5(3H)-one], the “% CAF 10 uM @ 60 min” value came to 96.4%.

In the case of `C=CC(=O)N1CCN(c2nc(=O)n3c4c(c(-c5ccc(F)cc5F)c(C(F)(F)F)cc24)SC[C@@H]3CN2C[C@@H]3C[C@H]2CO3)CC1` (atropisomer, axis not shown) [Example 1305, (3S,10R)-3-(((1S,4S)-2-oxa-5-azabicyclo[2.2.1]heptan-5-yl)methyl)-7-(4-acryloylpiperazin-1-yl)-10-(2,4-difluorophenyl)-9-(trifluoromethyl)-2,3-dihydro-5H-[1,4]thiazino[2,3,4-ij]quinazolin-5-one], the “% CAF 10 uM @ 60 min” value was 97.2%.

With `C=CC(=O)N1CCN(c2nc(=O)n3c4c(c(-c5ccc(F)cc5F)c(C(F)(F)F)cc24)SC[C@@H]3CN2C[C@@H]3C[C@H]2CO3)CC1` (atropisomer, axis not shown) [Example 1306, (3S,10S)-3-(((1S,4S)-2-oxa-5-azabicyclo[2.2.1]heptan-5-yl)methyl)-7-(4-acryloylpiperazin-1-yl)-10-(2,4-difluorophenyl)-9-(trifluoromethyl)-2,3-dihydro-5H-[1,4]thiazino[2,3,4-ij]quinazolin-5-one], the “% CAF 10 uM @ 60 min” value amounted to 96.8%.

As for `C=CC(=O)N1C[C@H](C)N(c2nc(=O)n3c4c(c(-c5cc(Cl)c(F)cc5F)c(C(F)(F)F)cc24)SC[C@@H]3CN2CCC3(CC2)COC3)C[C@H]1C` (atropisomer, axis not shown) [Example 1312, (3S,10S)-3-((2-oxa-7-azaspiro[3.5]nonan-7-yl)methyl)-7-((2S,5R)-4-acryloyl-2,5-dimethylpiperazin-1-yl)-10-(5-chloro-2,4-difluorophenyl)-9-(trifluoromethyl)-2,3-dihydro-5H-[1,4]thiazino[2,3,4-ij]quinazolin-5-one], the “% CAF 10 uM @ 60 min” value was found to be 72%.

Consider `C=CC(=O)N1C[C@H](C)N(c2nc(=O)n3c4c(c(-c5cc(Cl)c(F)cc5F)c(C(F)(F)F)cc24)SC[C@@H]3CN2CCC3(CC2)COC3)C[C@H]1C` (atropisomer, axis not shown) [Example 1313, (3S,10R)-3-((2-oxa-7-azaspiro[3.5]nonan-7-yl)methyl)-7-((2S,5R)-4-acryloyl-2,5-dimethylpiperazin-1-yl)-10-(5-chloro-2,4-difluorophenyl)-9-(trifluoromethyl)-2,3-dihydro-5H-[1,4]thiazino[2,3,4-ij]quinazolin-5-one], for which the “% CAF 10 uM @ 60 min” value worked out at 96.4%.

As for `C=CC(=O)N1C[C@H](C)N(c2nc(=O)n3c4c(c(-c5ccc(F)cc5F)c(C(F)(F)F)cc24)SC[C@@H]3CN2CCC3(CC2)COC3)C[C@H]1C` (atropisomer, axis not shown) [Example 1314, (3S,10S)-3-((2-oxa-7-azaspiro[3.5]nonan-7-yl)methyl)-7-((2S,5R)-4-acryloyl-2,5-dimethylpiperazin-1-yl)-10-(2,4-difluorophenyl)-9-(trifluoromethyl)-2,3-dihydro-5H-[1,4]thiazino[2,3,4-ij]quinazolin-5-one], the “% CAF 10 uM @ 60 min” value is 95.8%.

Take `C=CC(=O)N1C[C@H](C)N(c2nc(=O)n3c4c(c(-c5ccc(F)cc5F)c(C(F)(F)F)cc24)SC[C@@H]3CN2CCC3(CC2)COC3)C[C@H]1C` (atropisomer, axis not shown) [Example 1315, (3S,10R)-3-((2-oxa-7-azaspiro[3.5]nonan-7-yl)methyl)-7-((2S,5R)-4-acryloyl-2,5-dimethylpiperazin-1-yl)-10-(2,4-difluorophenyl)-9-(trifluoromethyl)-2,3-dihydro-5H-[1,4]thiazino[2,3,4-ij]quinazolin-5-one]: the “% CAF 10 uM @ 60 min” value is 96.3%.

`C=CC(=O)N1CCN(c2nc(=O)n3c4c(c(-c5ccc(F)cc5F)c(C(F)(F)F)cc24)SC[C@@H]3CN2CCN(CC)CC2)CC1` (atropisomer, axis not shown) [Example 1317, (3S,10S)-7-(4-acryloylpiperazin-1-yl)-10-(2,4-difluorophenyl)-3-((4-ethylpiperazin-1-yl)methyl)-9-(trifluoromethyl)-2,3-dihydro-5H-[1,4]thiazino[2,3,4-ij]quinazolin-5-one]: the “% CAF 10 uM @ 60 min” value was determined as 98.3%.

Staying with this experiment, now noted: 10 uM compound, 60 min incubation.
Take `C=CC(=O)N1[C@H](C)CN(c2nc(=O)n3c4c(c(-c5cccc6cnn(C)c56)c(C(F)(F)F)cc24)SCC2(COC2)C3)C[C@@H]1C` (atropisomer, axis not shown) [Example 1132, (S)-8′-((3S,5R)-4-acryloyl-3,5-dimethylpiperazin-1-yl)-11′-(1-methyl-1H-indazol-7-yl)-10′-(trifluoromethyl)-2′H,4′H,6′H-spiro[oxetane-3,3′-[1,4]thiazepino [2,3,4-ij]quinazolin]-6′-one]: the “% CAF 10 uM @ 60 min” value is reported as 85.6%.

Consider `C=CC(=O)N1[C@H](C)CN(c2nc(=O)n3c4c(c(-c5cccc6cnn(C)c56)c(C(F)(F)F)cc24)SCC2(COC2)C3)C[C@@H]1C` (atropisomer, axis not shown) [Example 1133, (R)-8′-((3S,5R)-4-acryloyl-3,5-dimethylpiperazin-1-yl)-11′-(1-methyl-1H-indazol-7-yl)-10′-(trifluoromethyl)-2′H,4′H,6′H-spiro[oxetane-3,3′-[1,4]thiazepino [2,3,4-ij]quinazolin]-6′-one], for which the “% CAF 10 uM @ 60 min” value was determined as 54.1%.

Regarding `C=CC(=O)N1[C@H](C)CN(c2nc(=O)n3c4c(c(-c5cc(Cl)c(F)cc5F)c(C(F)(F)F)cc24)SC[C@@H](N2CCOCC2)C3)C[C@@H]1C` (atropisomer, axis not shown) [Example 1135, (3S,11S)-8-((3S,5R)-4-acryloyl-3,5-dimethylpiperazin-1-yl)-11-(5-chloro-2,4-difluorophenyl)-3-morpholino-10-(trifluoromethyl)-3,4-dihydro-2H,6H-[1,4]thiazepino [2,3,4-ij]quinazolin-6-one], the “% CAF 10 uM @ 60 min” value is reported as 72.7%.

Turning to `C=CC(=O)N1[C@H](C)CN(c2nc(=O)n3c4c(c(-c5cc(Cl)c(F)cc5F)c(C(F)(F)F)cc24)SC[C@@H](N2CCOCC2)C3)C[C@@H]1C` (atropisomer, axis not shown) [Example 1136, (3S,11R)-8-((3S,5R)-4-acryloyl-3,5-dimethylpiperazin-1-yl)-11-(5-chloro-2,4-difluorophenyl)-3-morpholino-10-(trifluoromethyl)-3,4-dihydro-2H,6H-[1,4]thiazepino [2,3,4-ij]quinazolin-6-one], the “% CAF 10 uM @ 60 min” value turned out to be 82.7%.

In the case of `C=CC(=O)N1[C@H](C)CN(c2nc(=O)n3c4c(c(-c5cc(Cl)c(F)cc5F)c(C(F)(F)F)cc24)SC[C@@H](N2CCCC2)C3)C[C@@H]1C` (atropisomer, axis not shown) [Example 1137, (3S,11R)-8-((3S,5R)-4-acryloyl-3,5-dimethylpiperazin-1-yl)-11-(5-chloro-2,4-difluorophenyl)-3-(pyrrolidin-1-yl)-10-(trifluoromethyl)-3,4-dihydro-2H,6H-[1,4]thiazepino [2,3,4-ij]quinazolin-6-one], the “% CAF 10 uM @ 60 min” value was determined as 83.4%.

As for `C=CC(=O)N1[C@H](C)CN(c2nc(=O)n3c4c(c(-c5cc(Cl)c(F)cc5F)c(C(F)(F)F)cc24)SC[C@@H](N2CCCC2)C3)C[C@@H]1C` (atropisomer, axis not shown) [Example 1138, (3S,11S)-8-((3S,5R)-4-acryloyl-3,5-dimethylpiperazin-1-yl)-11-(5-chloro-2,4-difluorophenyl)-3-(pyrrolidin-1-yl)-10-(trifluoromethyl)-3,4-dihydro-2H,6H-[1,4]thiazepino [2,3,4-ij]quinazolin-6-one], the “% CAF 10 uM @ 60 min” value is reported as 50.5%.
